Laboratory results: PubChem BioAssay (NCI)
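Step 1: Grow cells in 96-well plates. Step 2: Expose to compound for 48 hours at 5 concentrations. Step 3: Interpolate endpoints linearly; if unreached, use highest concentration. GI50 marks 50% less growth. The concentration for full growth arrest is given as TGI.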

What was measured:
Test in all cases: NCI tumour cell line growth inhibition, 48 h
786-0 renal = test system: 786-0 renal
A498 renal = test system: A498 renal
A549 NSCLC = test system: A549 NSCLC
ACHN renal = test system: ACHN renal
BT-549 breast = test system: BT-549 breast
CAKI-1 renal = test system: CAKI-1 renal
CCRF-CEM leukemia = test system: CCRF-CEM leukemia
COLO 205 colon = test system: COLO 205 colon
DU-145 prostate = test system: DU-145 prostate
EKVX NSCLC = test system: EKVX NSCLC
HCC-2998 colon = test system: HCC-2998 colon
HCT-116 colon = test system: HCT-116 colon
HCT-15 colon = test system: HCT-15 colon
HL-60(TB) leukemia = test system: HL-60(TB) leukemia
HOP-62 NSCLC = test system: HOP-62 NSCLC
HOP-92 NSCLC = test system: HOP-92 NSCLC
HS 578T breast = test system: HS 578T breast
HT29 colon = test system: HT29 colon
IGROV1 ovarian = test system: IGROV1 ovarian
K-562 leukemia = test system: K-562 leukemia
KM12 colon = test system: KM12 colon
LOX IMVI melanoma = test system: LOX IMVI melanoma
M14 melanoma = test system: M14 melanoma
MALME-3M melanoma = test system: MALME-3M melanoma
MCF7 breast = test system: MCF7 breast
MDA-MB-231 breast = test system: MDA-MB-231 breast
MDA-MB-435 = test system: MDA-MB-435
MDA-MB-468 breast = test system: MDA-MB-468 breast
MOLT-4 leukemia = test system: MOLT-4 leukemia
NCI-H226 lung = test system: NCI-H226 lung
NCI-H23 lung = test system: NCI-H23 lung
NCI-H460 lung = test system: NCI-H460 lung
NCI-H522 lung = test system: NCI-H522 lung
OVCAR-3 ovarian = test system: OVCAR-3 ovarian
OVCAR-4 ovarian = test system: OVCAR-4 ovarian
OVCAR-5 ovarian = test system: OVCAR-5 ovarian
OVCAR-8 ovarian = test system: OVCAR-8 ovarian
PC-3 prostate = test system: PC-3 prostate
RPMI-8226 leukemia = test system: RPMI-8226 leukemia
RXF 393 renal = test system: RXF 393 renal
SF-268 CNS = test system: SF-268 CNS
SF-295 CNS = test system: SF-295 CNS
SF-539 CNS = test system: SF-539 CNS
SK-MEL-2 melanoma = test system: SK-MEL-2 melanoma
SK-MEL-28 melanoma = test system: SK-MEL-28 melanoma
SK-MEL-5 melanoma = test system: SK-MEL-5 melanoma
SK-OV-3 ovarian = test system: SK-OV-3 ovarian
SN12C renal = test system: SN12C renal
SNB-19 CNS = test system: SNB-19 CNS
SNB-75 CNS = test system: SNB-75 CNS
SR leukemia = test system: SR leukemia
SW-620 colon = test system: SW-620 colon
T-47D breast = test system: T-47D breast
TK-10 renal = test system: TK-10 renal
U251 CNS = test system: U251 CNS
UACC-257 melanoma = test system: UACC-257 melanoma
UACC-62 melanoma = test system: UACC-62 melanoma
UO-31 renal = test system: UO-31 renal

Cc1ccc(-c2cc(-c3cc4ccccc4nc3Cl)[nH]c(=O)n2)cc1
GI50 (786-0 renal): 4.71 µM
TGI (786-0 renal): 17.5 µM
GI50 (A498 renal): 14.4 µM
TGI (A498 renal): 30.5 µM
GI50 (A549 NSCLC): 22.1 µM
TGI (A549 NSCLC): > 100 µM
GI50 (ACHN renal): 16.3 µM
TGI (ACHN renal): 32.9 µM
GI50 (BT-549 breast): 2.73 µM
TGI (BT-549 breast): 7.87 µM
GI50 (CAKI-1 renal): 11.9 µM
TGI (CAKI-1 renal): 26.5 µM
GI50 (CCRF-CEM leukemia): 3.94 µM
TGI (CCRF-CEM leukemia): 35.5 µM
GI50 (COLO 205 colon): 18 µM
TGI (COLO 205 colon): 38.8 µM
GI50 (DU-145 prostate): 13.1 µM
TGI (DU-145 prostate): 26.9 µM
GI50 (EKVX NSCLC): 17.6 µM
TGI (EKVX NSCLC): 54.8 µM
GI50 (HCC-2998 colon): 15.3 µM
TGI (HCC-2998 colon): 29.4 µM
GI50 (HCT-116 colon): 3.31 µM
TGI (HCT-116 colon): 14 µM
GI50 (HCT-15 colon): 13 µM
TGI (HCT-15 colon): 45.1 µM
GI50 (HL-60(TB) leukemia): 1.89 µM
TGI (HL-60(TB) leukemia): 14.6 µM
GI50 (HOP-62 NSCLC): 14.2 µM
TGI (HOP-62 NSCLC): 31.5 µM
GI50 (HOP-92 NSCLC): 2.73 µM
TGI (HOP-92 NSCLC): 14.5 µM
GI50 (HS 578T breast): 13 µM
TGI (HS 578T breast): 83.4 µM
GI50 (HT29 colon): 16 µM
TGI (HT29 colon): 34.6 µM
GI50 (IGROV1 ovarian): 16 µM
TGI (IGROV1 ovarian): 37.2 µM
GI50 (K-562 leukemia): 2.61 µM
TGI (K-562 leukemia): 13.2 µM
GI50 (KM12 colon): 7.63 µM
TGI (KM12 colon): 24.8 µM
GI50 (LOX IMVI melanoma): 8.43 µM
TGI (LOX IMVI melanoma): 23.9 µM
GI50 (M14 melanoma): 10.7 µM
TGI (M14 melanoma): 30.1 µM
GI50 (MALME-3M melanoma): 14.8 µM
TGI (MALME-3M melanoma): 29.1 µM
GI50 (MCF7 breast): 6.08 µM
TGI (MCF7 breast): 22.4 µM
GI50 (MDA-MB-231 breast): 13.9 µM
TGI (MDA-MB-231 breast): 32.4 µM
GI50 (MDA-MB-435): 14.9 µM
TGI (MDA-MB-435): 31.5 µM
GI50 (MDA-MB-468 breast): 12.7 µM
TGI (MDA-MB-468 breast): 44.3 µM
GI50 (MOLT-4 leukemia): 2.66 µM
TGI (MOLT-4 leukemia): 12.4 µM
GI50 (NCI-H226 lung): 13.1 µM
TGI (NCI-H226 lung): 37.2 µM
GI50 (NCI-H23 lung): 12.2 µM
TGI (NCI-H23 lung): 30.2 µM
GI50 (NCI-H460 lung): 10 µM
TGI (NCI-H460 lung): 29.3 µM
GI50 (NCI-H522 lung): 13.9 µM
TGI (NCI-H522 lung): 27.3 µM
GI50 (OVCAR-3 ovarian): 10.3 µM
TGI (OVCAR-3 ovarian): 22.5 µM
GI50 (OVCAR-4 ovarian): 20.9 µM
TGI (OVCAR-4 ovarian): > 100 µM
GI50 (OVCAR-5 ovarian): 16.9 µM
TGI (OVCAR-5 ovarian): 32.5 µM
GI50 (OVCAR-8 ovarian): 18.5 µM
TGI (OVCAR-8 ovarian): 76.8 µM
GI50 (PC-3 prostate): 12 µM
TGI (PC-3 prostate): 37 µM
GI50 (RPMI-8226 leukemia): 3.17 µM
TGI (RPMI-8226 leukemia): 17.8 µM
GI50 (RXF 393 renal): 14.6 µM
TGI (RXF 393 renal): 32.6 µM
GI50 (SF-268 CNS): 13.8 µM
TGI (SF-268 CNS): 32.3 µM
GI50 (SF-295 CNS): 16.9 µM
TGI (SF-295 CNS): 35.1 µM
GI50 (SF-539 CNS): 12.1 µM
TGI (SF-539 CNS): 24.7 µM
GI50 (SK-MEL-2 melanoma): 14.4 µM
TGI (SK-MEL-2 melanoma): 30.6 µM
GI50 (SK-MEL-28 melanoma): 16.2 µM
TGI (SK-MEL-28 melanoma): 30.2 µM
GI50 (SK-MEL-5 melanoma): 17.7 µM
TGI (SK-MEL-5 melanoma): 33.7 µM
GI50 (SK-OV-3 ovarian): 29.2 µM
TGI (SK-OV-3 ovarian): > 100 µM
GI50 (SN12C renal): 15.8 µM
TGI (SN12C renal): 33 µM
GI50 (SNB-19 CNS): 11.3 µM
TGI (SNB-19 CNS): 23.9 µM
GI50 (SNB-75 CNS): 11.4 µM
TGI (SNB-75 CNS): 40.2 µM
GI50 (SR leukemia): 1.2 µM
TGI (SR leukemia): 4.33 µM
GI50 (SW-620 colon): 13.8 µM
TGI (SW-620 colon): 34.4 µM
GI50 (T-47D breast): 16.4 µM
TGI (T-47D breast): 77.3 µM
GI50 (TK-10 renal): 15.1 µM
TGI (TK-10 renal): 29.7 µM
GI50 (U251 CNS): 9.95 µM
TGI (U251 CNS): 28.6 µM
GI50 (UACC-257 melanoma): 16.7 µM
TGI (UACC-257 melanoma): 35.7 µM
GI50 (UACC-62 melanoma): 14 µM
TGI (UACC-62 melanoma): 30 µM
GI50 (UO-31 renal): 10.4 µM
TGI (UO-31 renal): 22.2 µM
